We go through 2 compounds from patent US10994006B2, “Desensitizing mast cells by co-presentation of antigens with high affinity mast cell siglec ligands” (The Scripps Research Institute, priority 2016, dated 2021).

Entries after “also recorded” stand apart in the source; their conditions may differ.

Test [1] concerns the target T1, hCD33 (Homo sapiens, UniProt P20138). The experiment in a line: glycan microarray binding of hCD33-Fc. The arrangement: made in house.
Target sequence in this assay (P20138 18-259 limits assumed): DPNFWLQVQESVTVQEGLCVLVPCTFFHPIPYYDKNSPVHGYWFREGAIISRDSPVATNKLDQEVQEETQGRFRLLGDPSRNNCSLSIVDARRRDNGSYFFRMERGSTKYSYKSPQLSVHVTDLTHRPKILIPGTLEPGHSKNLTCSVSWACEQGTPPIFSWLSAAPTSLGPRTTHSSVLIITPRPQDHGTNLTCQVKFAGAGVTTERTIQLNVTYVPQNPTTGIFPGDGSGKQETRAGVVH
The test system of a further test is HL-60 cells. The experiment in a line: HL-60 cell binding to arrayed compound. Conditions: AML cell line expressing intermediate levels of hCD33. The arrangement: species or system human. The source says:
This increase in avidity was further supported by the fact that HL-60 cells, an AML cell line expressing intermediate levels of hCD33, bound to compound 22.

For test [2], the target named is T1, hCD33. The experiment in a line: solution-phase inhibition assay, flow cytometry: binding of fluorescently labelled hCD33 to ligand-coated beads. The method, then: Glycan microarrays may provide only qualitative measures of avidity and selectivity. Therefore, the relative affinities of these compounds were analyzed using solution-phase inhibition assays where IC50 values were determined using a flow cytometry assay. The flow cytometry assay evaluated whether the compounds were able to prevent the binding of fluorescently labelled hCD33 to ligand-coated beads, and these values were used to determine the relative inhibitory potency (rIP) for each compound compared to the native sialoside (rIP=1).
Target sequence in this assay (P20138 18-364): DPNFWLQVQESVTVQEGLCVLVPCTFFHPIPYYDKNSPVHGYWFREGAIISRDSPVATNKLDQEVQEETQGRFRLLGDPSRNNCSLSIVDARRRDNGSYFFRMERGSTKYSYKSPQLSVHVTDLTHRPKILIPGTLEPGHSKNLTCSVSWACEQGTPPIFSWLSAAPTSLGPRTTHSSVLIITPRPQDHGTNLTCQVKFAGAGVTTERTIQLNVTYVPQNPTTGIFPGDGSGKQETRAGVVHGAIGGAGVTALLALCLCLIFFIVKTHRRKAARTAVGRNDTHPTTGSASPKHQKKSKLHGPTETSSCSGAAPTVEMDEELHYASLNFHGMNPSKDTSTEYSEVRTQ
In general terms: In flow cytometry, cells or beads pass a laser one at a time.

The next test deals with Siglec-8 (Homo sapiens, UniProt Q9NYZ4). Conditions: Bochner et al. 2005; Floyd et al. 2000; cited from earlier work.
Sequence of Siglec-8 (Q9NYZ4 17-499): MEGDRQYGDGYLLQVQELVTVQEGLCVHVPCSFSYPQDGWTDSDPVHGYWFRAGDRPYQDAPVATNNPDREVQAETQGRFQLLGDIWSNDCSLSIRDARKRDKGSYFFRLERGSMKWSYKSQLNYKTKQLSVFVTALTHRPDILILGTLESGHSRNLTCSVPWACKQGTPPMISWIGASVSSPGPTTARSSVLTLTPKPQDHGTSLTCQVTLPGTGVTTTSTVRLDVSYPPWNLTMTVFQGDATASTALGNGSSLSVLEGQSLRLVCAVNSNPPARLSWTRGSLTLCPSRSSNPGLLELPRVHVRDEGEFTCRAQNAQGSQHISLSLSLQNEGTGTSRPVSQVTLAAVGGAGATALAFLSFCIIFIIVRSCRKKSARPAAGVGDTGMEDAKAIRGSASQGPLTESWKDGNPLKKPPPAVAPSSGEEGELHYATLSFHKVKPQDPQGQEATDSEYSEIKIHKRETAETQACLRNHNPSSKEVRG

Consider `Cc1cc(C(=O)NC[C@@H](O)[C@@H](O)C2O[C@@](OCC3O[C@@H](O[C@@H]4C(CO)O[C@@H](OCCN)C(O)[C@H]4O)C(O)[C@@H](O)[C@H]3O)(C(=O)O)C[C@@H](O)[C@H]2NC(=O)Cn2cc(C3CCCCC3)nn2)cc(C)c1O` (stereo partly shown) [Compound 22], for which the “selectivity for hCD33 over hCD22 and mSn” value at hCD33 [1] (glycan microarray) was “showed increased selectivity for hCD33 over hCD22 and mSn”. Further, the “binding (affinity/avidity, selectivity) to hCD33 on glycan array” value on hCD33 [1] (printed at 100 μM or 3 μM, hCD33-Fc pre-complexed with R-PE anti-human IgG) is listed as “exhibited superior properties compared to the monosubstituted compounds; also recorded: exhibited higher avidity than both parent compounds”. The “binding of HL-60 cells to compound” value in the test with HL-60 cells is given as “bound”. Moreover, at hCD33 [2] (hCD33), the “increase in affinity relative to the native sialoside” value is on record as 350 fold. On hCD33 [2] (prevention of binding of fluorescently labelled hCD33 to ligand-coated beads), the IC50 (as a rule, the point on the concentration scale where inhibition reaches its midpoint) was determined as 11 µM. At hCD33 [2] (relative inhibitory potency compared to the native sialoside (rIP=1)), this compound registered a rIP value of 351.

“Neu5Acα2-3[6-SO4]Galβ1-4[Fucα1-3]GlcNAc [6′-sulfo-sLe^X]”: the “binding to Siglec-8” value on Siglec-8 is “binds to”.
